Where a name gives a salt, the structure may show the parent alone.
Columns and labels:
[1] = target: T1, cloned human 5-HT1A receptors (Homo sapiens, UniProt P08908); test: 35S-GTPγS binding assay, antagonist activity versus 8-OH-DPAT; assay type: biochemical; details: reversal of 8-OH-DPAT-stimulated 35S-GTPγS binding; for IC50: membranes with cloned human 5-HT1A receptors, read-out: 5-HT1A Function IC50
T1 construct: expressed in transfected cells
T1 sequence (P08908 1-422): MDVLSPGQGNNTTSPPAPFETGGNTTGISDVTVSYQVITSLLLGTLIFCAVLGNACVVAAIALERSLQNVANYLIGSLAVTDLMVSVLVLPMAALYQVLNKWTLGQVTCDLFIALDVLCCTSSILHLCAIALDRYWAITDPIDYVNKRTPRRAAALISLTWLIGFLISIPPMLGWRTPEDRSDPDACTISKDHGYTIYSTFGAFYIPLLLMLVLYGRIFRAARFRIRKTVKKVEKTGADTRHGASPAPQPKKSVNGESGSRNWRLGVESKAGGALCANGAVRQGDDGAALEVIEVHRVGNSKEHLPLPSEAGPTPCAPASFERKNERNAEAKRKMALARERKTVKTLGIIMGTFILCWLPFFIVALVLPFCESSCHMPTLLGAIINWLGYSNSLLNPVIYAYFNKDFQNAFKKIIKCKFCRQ
Method: Antagonist activity at 5-HT1A receptors was established by using a ^35S-GTPγS binding assay similar to that used by Lazareno and Birdsall (Br. J. Pharmacol. 109: 1120, 1993), in which the test compound's ability to affect the binding of ^35S-GTPγS to membranes containing cloned human 5-HT1A receptors was determined. Agonists produce an increase in binding whereas antagonists produce no increase but rather reverse the effects of the standard agonist 8-OH-DPAT. The test compound's maximum inhibitory effect is represented as the Imax, while its potency is defined by the IC50.

human 5-HT1A receptors = target: T2, human 5-HT1A receptors (Homo sapiens, UniProt P08908); test: [3H] 8-OH-DPAT displacement from the 5-HT1A serotonin receptor (CHO cells); assay type: binding; details: displacement of [3H] 8-OH-DPAT, CHO cells stably transfected with human 5-HT1A receptors; read-out: 5-HT1A Receptor Affinity KI
T2 construct: expressed in transfected cells; host or cells: CHO cells
T2 sequence (P08908 1-422): T1 sequence (P08908 1-422)
Source text: High affinity for the serotonin 5-HT1A receptor was established by testing the claimed compound's ability to displace [^3H] 8-OH-DPAT (dipropylaminotetralin) from the 5-HT1A serotonin receptor following a modification of the procedure of Hall et al., J. Neurochem. 44, 1685 (1985) which utilizes CHO cells stably transfected with human 5-HT1A receptors.

Cc1ccc2c3c(ccc2n1)OCC(CN1C2CCC1CC(O)(c1cccc(C(F)(F)F)c1)C2)O3 (stereo not shown) (as salt: fumarate) (hydrate or solvate) [Example 2, 8-{[8-Methyl-2,3-dihydro[1,4]dioxino[2,3-f]quinolin-2-yl]methyl}-3-[3-(trifluoromethyl)phenyl]-8-azabicyclo[3.2.1]octan-3-ol]
melting point: 146 to 150 °C

Cc1ccc2c3c(ccc2n1)OCC(CN1C2CCC1CC(O)(c1ccc4ccccc4c1)C2)O3 (stereo not shown) (as salt: fumarate) (hydrate or solvate) [Example 3, 8-{[8-Methyl-2,3-dihydro[1,4]dioxino[2,3-f]quinolin-2-yl}methyl]-3-(2-naphthyl)-8-azabicyclo[3.2.1]octan-3-ol]
melting point: 218 to 218.5 °C

Cc1ccc2c3c(ccc2n1)OCC(CN1C2CCC1CC(O)(c1ccccc1)C2)O3 (stereo not shown) [Example 1, 8-{[8-Methyl-2,3-dihydro[1,4]dioxino[2,3-f]quinolin-2-yl]methyl}-3-phenyl-8-azabicyclo[3.2.1]octan-3-ol]
5-HT1A Function Imax (maximum inhibitory effect) [1]: (98.0) | IC50 [1]: 6.85 nM | melting point: 162 to 165 °C | Ki (human 5-HT1A receptors): 2.59 nM

Cc1ccc2c3c(ccc2n1)OCC(CN1C2CCC1CC(O)(c1cccc(C(F)(F)F)c1)C2)O3 (stereo not shown) [Example 2, 8-{[8-Methyl-2,3-dihydro[1,4]dioxino[2,3-f]quinolin-2-yl]methyl}-3-[3-(trifluoromethyl)phenyl]-8-azabicyclo[3.2.1]octan-3-ol]
Ki (human 5-HT1A receptors): 6.81 nM

Cc1ccc2c3c(ccc2n1)OCC(CN1C2CCC1CC(O)(c1ccc4ccccc4c1)C2)O3 (stereo not shown) [Example 3, 8-{[8-Methyl-2,3-dihydro[1,4]dioxino[2,3-f]quinolin-2-yl}methyl]-3-(2-naphthyl)-8-azabicyclo[3.2.1]octan-3-ol]
5-HT1A Function Imax (maximum inhibitory effect) [1]: (100) | IC50 [1]: 55.5 nM | Ki (human 5-HT1A receptors): 3.45 nM
